In EP0114750A2, “Beta-lactam antibacterial agents” (BEECHAM GROUP PLC, priority 1983, dated 1984):
Counter-ions that a name gives are not always drawn. Like-named read-outs stand apart in the source and are kept apart here.

System: P. mirabilis 889
Experiment: MIC, antibacterial activity
Assay type: cell-based
Conditions: Proteus mirabilis

SMILES	MIC (strain P. mirabilis 889, read-out: MIC against P. mirabilis 889) [µg/mL]	MIC (889, strain number not given, read-out: MIC against P.mirabilis) [µg/mL]
CCN1CCN(C(=O)N[C@@H](C(=O)N[C@]2(NC=O)C(=O)N3C(C(=O)O)=C(CSc4nnnn4CC(N)=O)CS[C@@H]32)c2ccccc2)C(=O)C1=O [Example 13, 3-[1-carbamoylmethyl-1H-tetrazol-5-yl)thiomethyl]-7β-[2-[(4-ethyl-2,3-dioxopiperazin-1-yl)-carbonylamino]-2-phenyl-acetamido]-7a-formamidoceph-3-em-4-carboxylic acid, sodium salt]	0.12	
CCN1CCN(C(=O)N[C@@H](C(=O)N[C@]2(NC=O)C(=O)N3C(C(=O)O)=C(CSc4nnnn4CC(N)=O)CS[C@@H]32)c2ccc(OC(C)=O)c(OC(C)=O)c2)C(=O)C1=O [Example 14, Sodium 3-[(1-carbamoylmethyl-1H-tetrazol-5-yl)thiomethyl]-7β-[D-2-(3,4-diacetoxyphenyl)-2-[(4-ethyl-2,3-dioxopiperazin-1-yl)carbonylamino]acetamido)-7α-formamidoceph-3-em-4-carboxylate]		0.12
